From patent US12440610B2, “Coated medical devices and methods of inhibiting implant-associated infections” (UNIVERSITY OF CINCINNATI, priority 2017, dated 2025)
Where “and” joins values, the source holds several entries; their conditions need not be identical. Equal values may be shown once.

What was measured:
[1] = test system: methicillin resistant S. aureus (MRSA); assay: In vitro bacterial adherence and colonization of coated implants, MRSA; format: cell-based; conditions: 24 hours incubation; for reduction of MRSA adherent to PTFE in vitro: coated PTFE; for reduction of MRSA adherent to PTFE in vitro / reduction of MRSA adherent to titanium screws in vitro: vs vehicle-coated controls; for reduction of MRSA adherent to silk suture in vitro: coated silk suture, vs vehicle (100% ethanol)-coated controls; for reduction of MRSA adherent to titanium screws in vitro: coated titanium screws
Method: Small pieces of PTFE (5 mm×5 mm), silk suture (2 cm), and titanium screws antibiotic-coated and vehicle (100% ethanol)-coated, were prepared for analysis as in Example 1.2. Bacteria was prepared as in 2.3 and 1000 colony forming units (cfus) in 300 μL was placed in the wells of 96-well plates. The antibiotic-coated and vehicle-coated pieces were then immersed and incubated for 24 hours at 37° C., 95% humidity (n=15 per group). Pieces were then placed in 10 mL sterile PBS and bath sonicated for 10 minutes to release adherent bacteria. Bacteria were quantified by the plate dilution method.

[2] = test system: P. aeruginosa (strain 762); assay: In vitro bacterial adherence and colonization of coated implants, P. aeruginosa; format: cell-based; conditions: for reduction of P. aeruginosa adherent to PTFE in vitro / reduction of P. aeruginosa adherent to silk suture in vitro / reduction of P. aeruginosa adherent to titanium screws in vitro: 24 hours incubation, vs vehicle-coated controls; for reduction of P. aeruginosa adherent to silk suture in vitro: coated silk suture
Method: Bacteria was prepared as in 2.3 and 1000 colony forming units (cfus) in 300 μL was placed in the wells of 96-well plates. […] Pieces were then placed in 10 mL sterile PBS and bath sonicated for 10 minutes to release adherent bacteria. Bacteria were quantified by the plate dilution method.

[3] = test system: P. aeruginosa (strain 762); assay: Subcutaneous implant and infection of mice, P. aeruginosa colonization of implant; conditions: CF-1 mice, 2 million cfu, 3 days post infection; for reduction of P. aeruginosa colonization of PTFE in vivo: subcutaneous coated PTFE; for reduction of P. aeruginosa colonization of silk suture in vivo: subcutaneous coated silk suture; for reduction of P. aeruginosa colonization of titanium screws in vivo: subcutaneous coated titanium screws
From the text: (§1) Intact 5 cm sections of PTFE graft, full 75 cm length of silk suture, and individual titanium screws were dip-coated into each antibiotic solution and immediately withdrawn at a rate of ˜200 mm/'s. Thin films of antibiotic were subsequently formed as the ethanol evaporated.
(§2) After the PTFE, silk suture, and titanium are withdrawn from the antibiotic stock solution, they were allowed to further dry overnight at ambient conditions at room temperature. Vehicle (100% ethanol)-coated pieces were prepared in an identical manner, substituting absolute ethanol for the antibiotic stock solutions. PTFE implants were then cut to 5 mm×5 mm pieces, and silk suture was cut to 2 cm length for use in vitro and in vivo. Titanium screws were not further manipulated prior to use in vitro and in vivo.
(§3) MRSA was obtained from the clinical microbiology lab of Shriner's Hospital for Children (Cincinnati, OH). […] P. aeruginosa was grown from frozen glycerol stock overnight on TSB agar plates. MRSA was grown overnight from frozen glycerol stock on TSB agar plates with 5% sheep's blood. […] Bacteria were then washed twice by centrifugation at 3000×g for 10 min and resuspension in 0.9% NaCl. The optical density of the suspended bacteria was determined at 550 nm light and final inoculating concentration calculated from standard curves specific to each strain. Bacteria remained in 0.9% NaCl for in viva testing but were placed back into TSB for in vitro testing.
(§4) CF-1 mice were anesthetized with 120 mg/kg ketamine/16 mg/kg xylazine injected intraperitoneally and their backs shaved with electric clippers. A 2 cm incision was made in the back and implants (5 mm×5 mm PTFE, 2 cm silk suture, or titanium screws) were placed subcutaneously (n=9 per group).
(§5) Mice were sacrificed 3 days post infection. The implant capsule was entered with sterile instruments and the implant was removed and placed in 10 mL of sterile PBS. […] The implants and tissue were placed in a bath sonicator for 10 min to release adherent bacteria. Bacteria were then quantified by the plate dilution method. The most concentrated solution plated for each sample was a 1:100 dilution.

[4] = test system: methicillin resistant S. aureus (MRSA); assay: Subcutaneous implant and infection of mice, MRSA colonization of implant; conditions: CF-1 mice, 2.5 million cfu, 3 days post infection; for reduction of MRSA colonization of PTFE in vivo: subcutaneous coated PTFE; for reduction of MRSA colonization of silk suture in vivo: subcutaneous coated silk suture; for reduction of MRSA colonization of titanium screws in vivo: subcutaneous coated titanium screws
From the text: as §1, §2, §3, §4, §5

[5] = cited from earlier work; for reported solubility in ethanol/alcohol (in words): literature
physchem = conditions: 65 °C, organic solvent or mixture, thermodynamic from solid
Method: The process involved heating the ethanol to 65° C. and slowly adding the solid solute under bath sonication and manual agitation until the resulting solution was transparent. Dip coating was then carried out at room temperature immediately after removing the stock solutions from the heated water bath.
The reported solubility in the literature of the above antibiotics in ethanol are incompletely studied.

Structure (SMILES) | reduction of MRSA adherent to PTFE in vitro [1] | reduction of MRSA adherent to silk suture in vitro [1] [log] | reduction of MRSA adherent to titanium screws in vitro [1] | reduction of P. aeruginosa adherent to PTFE in vitro ([2]; coated PTFE) [log] | reduction of P. aeruginosa adherent to silk suture in vitro [2] [log] | reduction of P. aeruginosa adherent to titanium screws in vitro ([2]; coated titanium screws) [log] | reduction of P. aeruginosa colonization of PTFE in vivo [3] | reduction of P. aeruginosa colonization of silk suture in vivo [3] | reduction of P. aeruginosa colonization of titanium screws in vivo [3] | reduction of MRSA colonization of PTFE in vivo [4] | reduction of MRSA colonization of silk suture in vivo [4] | reduction of MRSA colonization of titanium screws in vivo [4] | reported solubility in ethanol/alcohol (in words) [5] | solubility (physchem) | further results
C[C@H]1COc2c(N3CCN(C)CC3)c(F)cc3c(=O)c(C(=O)O)cn1c23 [Levofloxacin] | 3.9 log | 5.2 | 5.3 log | 6.2 | 6.0 | 6.4 | 4.4 log and 3.7 log | 3.9 log and 4.3 log | 4.0 log and 3.3 log | 4.5 log and 3.7 log | 5.1 log and 4.0 log | 3.3 log and 3.0 log |  |  | reduction of MRSA adherent to PTFE in vitro ([1]; listed as levofloxacin): 5.7 log; reduction of MRSA adherent to titanium screws in vitro ([1]; listed as levofloxacin): 5.2 log; reduction of P. aeruginosa adherent to PTFE in vitro ([2]; coated PTFE, listed as levofloxacin): 6.1 log
CC[C@H]1OC(=O)[C@H](C)[C@@H](O[C@H]2C[C@@](C)(OC)[C@@H](O)[C@H](C)O2)[C@H](C)[C@@H](O[C@@H]2O[C@H](C)C[C@H](N(C)C)[C@H]2O)[C@](C)(O)C[C@@H](C)C(=O)[C@H](C)[C@@H](O)[C@]1(C)O [Erythromycin] | 5.7 log and 4.5 log | 5.2 | 5.2 log and 5.3 log | 5.8 | 1.6 | 5.1 | 4.4 log and 3.3 log | 0.6 log and 0.4 log | 0.5 log and 0.4 log | 3.8 log and 3.2 log | 5.1 log | 2.2 log and 2.5 log | freely soluble | 166000 µg/mL and 227000 µM | ethanol solubility reported by Sigma ([5]; ethanol, vendor value): 50 mg/mL; PA adherence to PTFE (in words) ([2]; coated PTFE, in vitro, p<0.05): significantly reduced; PA adherence to titanium screws (in words) ([2]; coated titanium screws, in vitro, p<0.05): significantly reduced
O=C(N[C@H](CO)[C@H](O)c1ccc([N+](=O)[O-])cc1)C(Cl)Cl [Chloramphenicol] | 5.7 log | 5.2 | 5.3 log |  |  |  |  |  |  | 3.1 log and 2.3 log | 1.2 log and 1.1 log | 2.2 log and 2.3 log |  |  | reduction of MRSA adherent to titanium screws in vitro ([1]; listed as chloramphenicol): 5.2 log
C[C@H]1c2cccc(O)c2C(=O)C2=C(O)[C@]3(O)C(=O)C(C(N)=O)=C(O)[C@@H](N(C)C)[C@@H]3[C@@H](O)[C@@H]21 [Doxycycline, Doxycycline Hyclate] | 5.7 log | 5.2 | 5.3 log | 5.5 | 4.4 | 6.4 | 4.4 log and 2.7 log | 1.2 log and 1.1 log | 3.7 log and 2.8 log | 4.6 log and 4.7 log | 3.2 log and 2.1 log | 3.1 log and 3.0 log | sparingly soluble | 41000 µg/mL and 80000 µM | reduction of MRSA adherent to titanium screws in vitro ([1]; listed as doxycycline): 5.2 log; reduction of P. aeruginosa adherent to PTFE in vitro ([2]; coated PTFE, listed as doxycycline): 6.1 log; reduction of P. aeruginosa adherent to silk suture in vitro ([2]; listed as doxycycline): 6.0 log
